Experimental data reported in patent US20190367963A1, “METHOD FOR SELECTING ODOR CONTROL SUBSTANCE” (KAO CORPORATION, priority 2017, published 2019).

How the values were obtained:
OR2W1 = molecular target: T1, OR2W1 (Homo sapiens, UniProt Q9Y3N9); assay: Luciferase reporter gene assay of OR2W1 expressing HEK293 cells; type: cell-based
T1 construct: expressed in transfected cells; host or cells: HEK293
T1 sequence (Q9Y3N9 1-320): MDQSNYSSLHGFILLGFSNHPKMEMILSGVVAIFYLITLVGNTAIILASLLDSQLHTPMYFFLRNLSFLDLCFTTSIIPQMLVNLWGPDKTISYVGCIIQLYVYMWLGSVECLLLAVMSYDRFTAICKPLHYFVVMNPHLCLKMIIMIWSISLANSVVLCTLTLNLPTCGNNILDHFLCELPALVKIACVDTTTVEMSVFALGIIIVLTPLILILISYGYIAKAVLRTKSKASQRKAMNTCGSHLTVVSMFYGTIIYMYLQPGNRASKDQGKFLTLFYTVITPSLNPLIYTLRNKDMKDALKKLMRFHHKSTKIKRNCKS
Description: (§1) Based on the sequence information registered in GenEank, genes encoding 427 human olfactory receptors including variants were each cloned. Each gene was cloned by PCR using human genomic DNA female (G1521: Promega) as the template. Each gene amplified by PCR was recombined downstream of a Flag-Rho tag sequence on a pME18S vector.
(§2) A gene encoding human RTP1S was inserted into the EcoRI/XhoI site of a pME18S vector.
427 HEK293 cells differently expressing one of 427 human olfactory receptors were produced. Reaction solutions having compositions shown in Table 1 were prepared and were left to stand in a clean bench for 15 minutes. The reaction solutions were added to each well of a multi-well plate (384 or 96-well plate, BioCoat), and HEK293 cells were then seeded. In the 384-well plate, 4.4 μL of a reaction solution and 40 μL of HEK293 cells (20×10^4 cells/cm^2) were added. In the 96-well plate, 10 μL of a reaction solution and 90 μL of HEK293 cells (3×10^5 cells/cm^2) were added. The cells were cultured in an incubator maintained at 37° C. and 5% CO2 for 24 hours. As a control, cells not expressing an olfactory receptor (mock) were prepared.
The olfactory receptor expressed in HEK293 cells interact with endogenous cellular Gas to activate adenylate cyclase and thereby increases the intracellular cAMP level. The measurement of the response of cells to an odorant, test substance, or antagonist in the present invention was performed by a luciferase reporter gene assay monitoring the increase in the intracellular cAMP level as a light emission value derived from a firefly luciferase gene (fluc2P-CRE-hygro). A Renilla luciferase gene fused to downstream of a CMV promoter (hRluc-CMV) was simultaneously transfected and was used as an internal standard for calibrating the error in gene transfer efficiency or the number of cells. The luciferase activity was measured from 2.5 to 4 hours after stimulation with an odorant or a test substance with a Dual-Glo™ luciferase assay system (Promega), following user's manual thereof. The value fLuc/hRluc was calculated by dividing the light emission value derived from firefly luciferase by the light emission value derived from Renilla luciferase. “Fold increase” as an indicator of the responsiveness of an olfactory receptor to stimulation with a test substance, and “odor response” (%) as an indicator of the activity level of an antagonist to the olfactory receptor, were calculated according to the following formula: […]
X: fLuc/hRluc, induced by stimulation with a test substance alone, and
Y: fLuc/hRluc, without stimulation with a test substance.
L-Arginine and 1-histidine were used as test substances. […]

[1] = system: 427 human olfactory receptors; assay: Luciferase reporter gene assay of 427 human olfactory receptors expressed in HEK293 cells; type: cell-based; conditions: test substance 10 mM
Description: as §1, §2
427 HEK293 cells differently expressing one of 427 human olfactory receptors were produced. Reaction solutions having compositions shown in Table 1 were prepared and were left to stand in a clean bench for 15 minutes. The reaction solutions were added to each well of a multi-well plate (384 or 96-well plate, BioCoat), and HEK293 cells were then seeded. […]
The olfactory receptor expressed in HEK293 cells interact with endogenous cellular Gas to activate adenylate cyclase and thereby increases the intracellular cAMP level. […] The luciferase activity was measured from 2.5 to 4 hours after stimulation with an odorant or a test substance with a Dual-Glo™ luciferase assay system (Promega), following user's manual thereof. The value fLuc/hRluc was calculated by dividing the light emission value derived from firefly luciferase by the light emission value derived from Renilla luciferase. […]

[2] = Sensory examination: PEA detection threshold value before and after nasal administration; type: in vivo; conditions: 10 mM in saline, nasal spray, human examinees, one minute after spraying
Protocol: The action of 1-arginine, which is an OR2W1 selective ligand, on olfaction was evaluated by sensory examination. Three samples, saline (Otsuka Pharmaceutical Co., Ltd.), saline aqueous solution containing 10 mM 1-arginine, and saline aqueous solution containing 10 mM 1-histidine, were prepared and filled into nasal sprays (KT110-102, AS ONE Corporation). […] PEA aqueous solutions with 11 different concentrations from 0.001 to 100 WA were prepared as test solutions, and 3 mL of each of the solutions was respectively added to 20-mL glass vials (Maruemu Corporation).
The experiment was blinded to both an examiner and an examinee. The examiner set the spray spout in the nasal cavity of the examinee as deep as possible and sprayed once. The amount of liquid ejected thereby was about 100 to 200 μL. […] The concentration that gave a correct answer three consecutive times after answering an incorrect answer was determined as the detection threshold value. […] Before and after the nasal administration of a sample, detection threshold values of an examinee to PEA were measured. The rate of change in the threshold value was determined by calculating (threshold value concentration before sample nasal administration)/(threshold value concentration after sample nasal administration).

[3] = Sensory examination: odor intensity (labeled magnitude scale) on simultaneous exposure to odorant and test substance; type: in vivo, human; conditions: test substance 10 mM in saline, ultrasonic nebulizer, LMS; for odor intensity of HCA used together with test substance: HCA 0.1 mM; for odor intensity of PEA used together with test substance: PEA 0.1 mM
Protocol: Whether the odor of an odorant was enhanced or not by simultaneous exposure to the odorant and 1-arginine was investigated by comparing with exposure to the odorant alone. PEA or hexyl cinnamic aldehyde (HCA) was used as the odorant. The odorant was added at a final concentration of 0.1 mM to a saline aqueous solution with 1-arginine (10 mM) and a saline aqueous solution with 1-histidine (10 mM) as a control. The resulting solutions were sprayed to an examinee for inhaling using an ultrasonic nebulizer (NE-U07: OMRON Corporation, atomization particle diameter: 1 to 8 μm (80% of total volume particle diameter distribution)) with a spray amount of about 170 μL (for about 20 seconds) at most, and odor intensity was evaluated.
The odor intensity was evaluated according to the method of Green, et al, (Chemical senses, 1996, 21: 323-34) with the labeled magnitude scale (LMS) shown below. That is, assuming the full scale length was 100%, labels were set to the following positions: Barely detectable: 1.4%, Weak: 6.1%, Moderate: 17.2%, Strong: 35.4%, Very strong: 53.3%, Strongest imaginable: 100%.

| SMILES | response of OR2W1 expressing cells (OR2W1) | responses of 427 olfactory receptors [1] | PEA detection threshold value after nasal administration [2] | odor intensity of HCA used together with test substance [3] | odor intensity of PEA used together with test substance [3] |
| --- | --- | --- | --- | --- | --- |
| CCCCCCC(C=O)=Cc1ccccc1 [HCA, 2-(phenylmethylidene)octanal] | did not respond | – | – | – | – |
| N=C(N)NCCC[C@H](N)C(=O)O [1-arginine, L-Arginine] | responded to 1-arginine concentration dependently | no olfactory receptors other than OR2W1 responded | decreased in statistically significant manner | enhanced in statistically siggificant manner | enhanced in statistically siggificant manner |
| N[C@@H](Cc1c[nH]cn1)C(=O)O [1-histidine, L-Histidine] | did not respond | did not respond | not observed | the effect of enhancing the odor intensity was not observed | the effect of enhancing the odor intensity was not observed |
| OCCc1ccccc1 [PEA, 2-phenylethanol] | responded | – | – | – | – |
